What was measured:
[1] = Capsule perfume leakage in liquid fabric enhancer (LFE), headspace SPME GC/MS; format: physicochemical
Procedure: The testing of capsule leakage in liquid compositions (e.g., liquid fabric enhancer/“LFE” compositions and/or heavy-duty liquid/“HDL” detergents) is performed as follows. […] The 1 gram aliquot in the 7 ml vial is then mixed on a stirring plate for 24 h at 500 rpm, thereby ensuring that the capsules are broken by the grinding action of the stir bar against the bottom of the 7 ml vial. Optical microscopy can be used to verify that no more intact capsules remain. In case such capsules are found, the step is to repeated for an additional 24 h, or until all or almost all capsules are broken. Then, the formulation containing broken capsules is introduced into GC vials in a similar manner as for step (a). This yields total oil samples. It is to be noted that the capsule sample and the total oil sample are not analyzed on the same day, as there is a need to prepare the total oil sample after the capsule sample has been removed from storage. […] The perfume oil composition formulated herein is representative of the perfume oil composition that is present in the slurry. Then the free oil formulation is introduced into GC vials in a similar manner as for step (a). This yields reference samples, which must be used when analyzing both the capsule sample and the total oil sample. […] Two headspace vials are prepared for each sample. The sealed headspace vials are then allowed to equilibrate. Samples reach equilibrium after 3 hours at room temperature, but can be left to sit longer without detriment or change to the results, up until 24 hours after sealing the headspace vial. After equilibrating, the samples are analyzed by GC/MS. […] The perfume composition is analyzed by fast GC/MS in full scan mode. Ion extraction of the specific mass for each component is obtained. The leakage is calculated as follows, separately for the capsule sample and total oil sample, where “Area” denotes the area under the chromatogram peak corresponding to the PRM of interest: Once calculated for all PRMs for both the total oil sample and the capsule sample, the corrected PRM leakage can be calculated using the following formula: Once the corrected PRM leakage has been calculated for all PRMs, the Average leakage can be found by taking the arithmetic mean of each corrected PRM leakage. […] The resulting products are stored for one week at 35° C. At the end of the storage period, samples of each product composition are analyzed for perfume leakage out of the capsule using headspace analysis. The data is reported as a percentage, determined by comparing the amount of the individual perfume raw materials found in the headspace to the amount originally provided to the capsules.

[2] = Capsule perfume leakage in heavy-duty liquid (HDL) detergent, headspace SPME GC/MS; format: physicochemical
Procedure: The testing of capsule leakage in liquid compositions (e.g., liquid fabric enhancer/“LFE” compositions and/or heavy-duty liquid/“HDL” detergents) is performed as follows. […] The 1 gram aliquot in the 7 ml vial is then mixed on a stirring plate for 24 h at 500 rpm, thereby ensuring that the capsules are broken by the grinding action of the stir bar against the bottom of the 7 ml vial. Optical microscopy can be used to verify that no more intact capsules remain. In case such capsules are found, the step is to repeated for an additional 24 h, or until all or almost all capsules are broken. Then, the formulation containing broken capsules is introduced into GC vials in a similar manner as for step (a). This yields total oil samples. It is to be noted that the capsule sample and the total oil sample are not analyzed on the same day, as there is a need to prepare the total oil sample after the capsule sample has been removed from storage. […] The perfume oil composition formulated herein is representative of the perfume oil composition that is present in the slurry. Then the free oil formulation is introduced into GC vials in a similar manner as for step (a). This yields reference samples, which must be used when analyzing both the capsule sample and the total oil sample. […] Two headspace vials are prepared for each sample. The sealed headspace vials are then allowed to equilibrate. […] After equilibrating, the samples are analyzed by GC/MS. […] The perfume composition is analyzed by fast GC/MS in full scan mode. Ion extraction of the specific mass for each component is obtained. The leakage is calculated as follows, separately for the capsule sample and total oil sample, where “Area” denotes the area under the chromatogram peak corresponding to the PRM of interest: Once calculated for all PRMs for both the total oil sample and the capsule sample, the corrected PRM leakage can be calculated using the following formula: Once the corrected PRM leakage has been calculated for all PRMs, the Average leakage can be found by taking the arithmetic mean of each corrected PRM leakage. […] The resulting products are stored for one week at 35° C. At the end of the storage period, samples of each product composition are analyzed for perfume leakage out of the capsule using headspace analysis. The data is reported as a percentage, determined by comparing the amount of the individual perfume raw materials found in the headspace to the amount originally provided to the capsules.

[3] = PRM of Perfume 1 out of Comparative Example 4-1 capsules (polyacrylate shell), LFE Composition 1, 0.25 wt % perfume
[4] = PRM of Perfume 1 out of Comparative Example 6-1 capsules (no second shell component), LFE Composition 1
[5] = PRM of Perfume 1 out of Comparative Example 10-1 capsules (per EP2500087B1), LFE Composition 1
[6] = PRM of Perfume 1 out of Comparative Example 10-2 capsules (per WO2010013250A2, with IPM), LFE Composition 1
[7] = PRM of Perfume 1 out of Example 2, Sample A capsules, LFE Composition 1 (Ester Quat 1)
[8] = PRM of Perfume 1 out of Example 2, Sample A capsules, LFE Composition 2 (Ester Quat 2)
[9] = PRM of Perfume 1 out of Example 2, Sample A capsules, LFE Composition 3 (Ester Quat 3)
[10] = PRM of Perfume 1 out of Example 4-1 capsules (silica shell), LFE Composition 1, 0.25 wt % perfume
[11] = PRM of Perfume 1 out of Example 6-1 capsules (w/ second shell component), LFE Composition 1
[12] = PRM of Perfume 1 out of Example 10-1 capsules (Sample F, Perfume 1/IPM 40/60), LFE Composition 1
[13] = PRM of Perfume 1 out of Example 10-2 capsules (Sample A), LFE Composition 1
[14] = PRM of Perfume 2 out of Capsule Sample C, LFE Composition 1
[15] = PRM of Perfume 3 out of Capsule Sample D, LFE Composition 1
[16] = PRM of Perfume 1 out of Comparative Example 5-1 capsules (polyacrylate shell)
[17] = PRM of Perfume 1 out of Comparative example 5-2 capsules (per EP2500087B1)
[18] = PRM of Perfume 1 out of Comparative example 5-3 capsules (per WO2010013250A2)
[19] = PRM of Perfume 1 out of Example 5-1 capsules (silica shell)
[20] = PRM of Perfume 4 out of Comparative Example 9-1 capsules (per EP3078415A), LFE Composition 1
[21] = PRM of Perfume 4 out of Comparative Example 9-2 capsules (per EP3078415A, additional TEOS), LFE Composition 1
[22] = PRM of Perfume 4 out of Example 9-1 capsules (Sample E), LFE Composition 1

SMILES | Leakage (as %) after 1 week at 35° C. [1, 3] [%] | Leakage (as %) after 1 week at 35° C. [1, 4] [%] | Leakage (as %) after 1 week at 35° C. [1, 5] [%] | Leakage (as %) after 1 week at 35° C. [1, 6] [%] | Leakage (as %) after 1 week at 35° C. [1, 7] [%] | Leakage (as %) after 1 week at 35° C. [1, 8] [%] | Leakage (as %) after 1 week at 35° C. [1, 9] [%] | Leakage (as %) after 1 week at 35° C. [1, 10] [%] | Leakage (as %) after 1 week at 35° C. [1, 11] [%] | Leakage (as %) after 1 week at 35° C. [1, 12] [%] | Leakage (as %) after 1 week at 35° C. [1, 13] [%] | Leakage (as %) after 1 week at 35° C. [1, 14] [%] | Leakage (as %) after 1 week at 35° C. [1, 15] [%] | Leakage (as %) after 1 week at 35° C. [2, 16] [%] | Leakage (as %) after 1 week at 35° C. [2, 17] [%] | Leakage (as %) after 1 week at 35° C. [2, 18] [%] | Leakage (as %) after 1 week at 35° C. [2, 19] [%] | Leakage (as %) after 1 week at 35° C. [1, 20] [%] | Leakage (as %) after 1 week at 35° C. [1, 21] [%] | Leakage (as %) after 1 week at 35° C. [1, 22] [%]
CCOC(=O)C(C)CC (stereo not drawn) [Ethyl 2-methyl butyrate] | 61 | 101 | 100 | 100 | 1.3 | 1.0 | 2.2 | 4 | 6 | 28 | 6 | 21 | 14 | 75 | 103 | 99 | 38 |  |  | 
CC12CCC(CC1)C(C)(C)O2 [Eucalyptol] | 5 | 72 | 97 | 96 | 2.1 | 1.3 | 2.0 | 7 | 8 | 26 | 8 |  |  | 1 | 104 | 101 | 28 |  |  | 
CCC(C)(O)CCCC(C)C (stereo not drawn) [Tetrahydro linalool] | 9 | 83 | 90 | 95 | 2.3 | 1.1 | 1.2 | 8 | 8 | 18 | 8 | 9 | 9 | 2 | 105 | 102 | 27 | 70 | 76 | 17
CCC(C)CCCC(C)(C)O (stereo not drawn) [Tetrahydro myrcenol] | 10 | 86 | 88 | 95 | 2.4 | 1.2 | 1.2 | 8 | 7 | 17 | 7 |  |  | 3 | 107 | 105 | 26 |  |  | 
CC(=O)OC1CC2CC1C1CC=CC21 (stereo not drawn) [Verdyl acetate] | 4 | 20 | 89 | 94 | 1.2 | 0.8 | 1.2 | 5 | 7 | 17 | 7 | 6 | 8 | 1 | 107 | 104 | 26 | 67 | 72 | 13
